{"source": "patent US9458137B2", "about": "“Substituted indol-5-ol derivatives and their therapeutical applications” (NantBioScience, Inc., priority 2012, dated 2016)", "assay_in_all_cases": "Kinase panel activity", "type_in_all_cases": "biochemical", "conditions_in_all_cases": "0.1 μM, ATP Km", "key": {"CaMKIδ(h)": {"biological_target": "CaMKIδ(h) (Homo sapiens, UniProt Q8IU85)", "experimental": "(§1) The effect of NTW-3475 on kinase activity was tested for a wide range of kinases and is shown in Table 2: Summary Sheet, Activity % ATP Concentration: Km"}, "GRK6(h)": {"biological_target": "GRK6(h) (Homo sapiens, UniProt P43250)", "experimental": "as §1"}, "Ab1(m)": {"biological_target": "Ab1(m) (Mus musculus, UniProt P00520)", "experimental": "as §1"}, "EphB1(h)": {"biological_target": "T1, EphB1(h) (Homo sapiens, UniProt P54762)", "T1 construct": "purchased Millipore (KinaseProfiler service)", "T1 sequence (P54762 18-984)": "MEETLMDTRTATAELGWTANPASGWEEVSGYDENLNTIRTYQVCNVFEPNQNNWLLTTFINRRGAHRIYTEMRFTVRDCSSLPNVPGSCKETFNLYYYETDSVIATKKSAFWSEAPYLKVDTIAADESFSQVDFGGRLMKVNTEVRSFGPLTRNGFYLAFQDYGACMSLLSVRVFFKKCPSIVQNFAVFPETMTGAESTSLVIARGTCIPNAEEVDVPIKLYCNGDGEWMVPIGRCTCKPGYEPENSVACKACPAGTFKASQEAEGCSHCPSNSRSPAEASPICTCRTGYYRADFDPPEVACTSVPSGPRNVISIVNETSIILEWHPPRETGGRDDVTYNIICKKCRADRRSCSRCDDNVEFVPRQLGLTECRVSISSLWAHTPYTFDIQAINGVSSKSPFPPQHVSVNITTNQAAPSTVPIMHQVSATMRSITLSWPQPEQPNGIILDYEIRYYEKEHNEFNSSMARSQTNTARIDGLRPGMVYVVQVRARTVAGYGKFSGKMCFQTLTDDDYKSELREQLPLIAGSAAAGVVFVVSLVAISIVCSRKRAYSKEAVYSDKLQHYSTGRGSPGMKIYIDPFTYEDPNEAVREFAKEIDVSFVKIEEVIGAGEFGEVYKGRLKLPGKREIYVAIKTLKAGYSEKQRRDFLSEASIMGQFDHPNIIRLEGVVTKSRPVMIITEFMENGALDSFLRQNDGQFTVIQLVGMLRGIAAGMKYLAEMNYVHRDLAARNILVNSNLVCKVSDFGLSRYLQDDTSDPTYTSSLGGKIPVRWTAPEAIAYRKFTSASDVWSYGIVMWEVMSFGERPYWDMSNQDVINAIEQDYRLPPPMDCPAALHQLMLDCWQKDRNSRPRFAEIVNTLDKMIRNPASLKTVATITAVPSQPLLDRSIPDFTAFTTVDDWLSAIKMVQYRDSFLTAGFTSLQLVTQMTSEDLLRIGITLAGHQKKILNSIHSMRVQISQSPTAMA", "experimental": "as §1"}, "ULK2(h)": {"biological_target": "ULK2(h) (Homo sapiens, UniProt Q8IYT8)", "experimental": "as §1"}, "cKit(V560G)(h)": {"biological_target": "cKit(V560G)(h) (Homo sapiens, UniProt P10721, V560G)", "experimental": "as §1"}, "PKBα(h)": {"biological_target": "PKBα(h) (Homo sapiens, UniProt P31749)", "experimental": "as §1"}, "Arg(h)": {"biological_target": "Arg(h) (Homo sapiens, UniProt P42684)", "experimental": "as §1"}, "EphA5(h)": {"biological_target": "T2, EphA5(h) (Homo sapiens, UniProt P54756)", "T2 construct": "purchased Millipore (KinaseProfiler service)", "experimental": "as §1"}, "EGFR(T790M)(h)": {"biological_target": "T3, EGFR(T790M)(h) (Homo sapiens, UniProt P00533, T790M)", "T3 construct": "purchased Millipore (KinaseProfiler service)", "experimental": "as §1"}, "CLK3(h)": {"biological_target": "CLK3(h) (Homo sapiens, UniProt P49761)", "sequence (P49761 whole entry)": "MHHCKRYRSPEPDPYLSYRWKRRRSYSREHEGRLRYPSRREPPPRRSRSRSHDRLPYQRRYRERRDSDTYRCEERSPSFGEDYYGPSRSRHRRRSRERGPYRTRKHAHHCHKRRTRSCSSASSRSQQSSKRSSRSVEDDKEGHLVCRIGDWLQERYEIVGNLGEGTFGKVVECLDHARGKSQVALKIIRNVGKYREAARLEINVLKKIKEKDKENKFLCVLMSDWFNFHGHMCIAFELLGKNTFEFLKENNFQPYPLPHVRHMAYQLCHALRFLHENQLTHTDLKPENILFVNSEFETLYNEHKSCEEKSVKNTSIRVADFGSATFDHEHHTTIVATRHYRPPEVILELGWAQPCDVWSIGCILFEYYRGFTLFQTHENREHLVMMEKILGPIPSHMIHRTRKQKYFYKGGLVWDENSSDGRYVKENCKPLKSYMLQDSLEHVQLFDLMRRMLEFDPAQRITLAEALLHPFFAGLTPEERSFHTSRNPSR", "experimental": "as §1"}, "NEK7(h)": {"biological_target": "NEK7(h) (Homo sapiens, UniProt Q8TDX7)", "experimental": "as §1"}, "IGF-1R(h)": {"biological_target": "IGF-1R(h) (Homo sapiens, UniProt P08069)", "experimental": "as §1"}, "CHK1(h)": {"biological_target": "CHK1(h) (Homo sapiens, UniProt O14757)", "experimental": "as §1"}, "F1t4(h)": {"biological_target": "F1t4(h) (Homo sapiens, UniProt P35916)", "experimental": "as §1"}, "1tk(h)": {"biological_target": "1tk(h) (Homo sapiens, UniProt Q08881)", "sequence (Q08881 whole entry)": "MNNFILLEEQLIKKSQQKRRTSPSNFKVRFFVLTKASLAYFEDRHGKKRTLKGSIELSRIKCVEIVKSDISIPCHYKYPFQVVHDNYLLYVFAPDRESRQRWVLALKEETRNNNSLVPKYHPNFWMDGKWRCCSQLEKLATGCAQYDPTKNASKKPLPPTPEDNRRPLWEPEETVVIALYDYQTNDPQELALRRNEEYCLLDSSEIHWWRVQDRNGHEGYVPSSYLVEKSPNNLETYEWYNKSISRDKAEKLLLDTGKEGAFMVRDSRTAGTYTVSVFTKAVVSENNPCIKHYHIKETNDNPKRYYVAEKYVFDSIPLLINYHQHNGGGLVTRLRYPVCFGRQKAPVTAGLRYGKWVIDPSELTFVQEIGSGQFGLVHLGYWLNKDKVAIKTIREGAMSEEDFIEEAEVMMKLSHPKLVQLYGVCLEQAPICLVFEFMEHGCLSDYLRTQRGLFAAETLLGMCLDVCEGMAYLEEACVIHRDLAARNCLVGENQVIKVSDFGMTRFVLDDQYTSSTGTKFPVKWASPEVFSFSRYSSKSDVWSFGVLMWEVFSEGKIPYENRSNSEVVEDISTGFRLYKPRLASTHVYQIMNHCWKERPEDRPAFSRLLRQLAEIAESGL", "experimental": "as §1"}, "DAPK2(h)": {"biological_target": "DAPK2(h) (Homo sapiens, UniProt Q9UIK4)", "experimental": "as §1"}, "VRK2(h)": {"biological_target": "VRK2(h) (Homo sapiens, UniProt Q86Y07)", "experimental": "as §1"}, "IRR(h)": {"biological_target": "IRR(h) (Homo sapiens, UniProt P14616)", "experimental": "as §1"}, "SRPK2(h)": {"biological_target": "T4, SRPK2(h) (Homo sapiens, UniProt P78362)", "T4 construct": "purchased Millipore (KinaseProfiler service)", "experimental": "as §1"}, "CK1γ1(h)": {"biological_target": "CK1γ1(h) (Homo sapiens, UniProt Q9HCP0)", "experimental": "as §1"}, "Ab1(M351T)(h)": {"biological_target": "Ab1(M351T)(h) (Homo sapiens, UniProt P00519, M351T)", "experimental": "as §1"}, "EGFR(L858R)(h)": {"biological_target": "T5, EGFR(L858R)(h) (Homo sapiens, UniProt P00533, L858R)", "T5 construct": "purchased Millipore (KinaseProfiler service)", "experimental": "as §1"}, "CaMKI(h)": {"biological_target": "CaMKI(h) (Homo sapiens, UniProt Q14012)", "experimental": "as §1"}, "TLK2(h)": {"biological_target": "T6, TLK2(h) (Homo sapiens, UniProt Q86UE8)", "T6 construct": "purchased Millipore (KinaseProfiler service)", "experimental": "as §1"}, "JNK3(h)": {"biological_target": "JNK3(h) (Homo sapiens, UniProt P53779)", "experimental": "as §1"}, "SAPK2a(T106M)(h)": {"biological_target": "T7, SAPK2a(T106M)(h) (Homo sapiens, UniProt Q16539, T106M)", "T7 construct": "purchased Millipore (KinaseProfiler service)", "experimental": "as §1"}, "cKit(D816H)(h)": {"biological_target": "cKit(D816H)(h) (Homo sapiens, UniProt P10721, D816H)", "experimental": "as §1"}, "Ros(h)": {"biological_target": "T8, Ros(h) (Homo sapiens, UniProt P08922)", "T8 construct": "purchased Millipore (KinaseProfiler service)", "experimental": "as §1"}, "EphA4(h)": {"biological_target": "T9, EphA4(h) (Homo sapiens, UniProt P54764)", "T9 construct": "purchased Millipore (KinaseProfiler service)", "T9 sequence (P54764 20-986)": "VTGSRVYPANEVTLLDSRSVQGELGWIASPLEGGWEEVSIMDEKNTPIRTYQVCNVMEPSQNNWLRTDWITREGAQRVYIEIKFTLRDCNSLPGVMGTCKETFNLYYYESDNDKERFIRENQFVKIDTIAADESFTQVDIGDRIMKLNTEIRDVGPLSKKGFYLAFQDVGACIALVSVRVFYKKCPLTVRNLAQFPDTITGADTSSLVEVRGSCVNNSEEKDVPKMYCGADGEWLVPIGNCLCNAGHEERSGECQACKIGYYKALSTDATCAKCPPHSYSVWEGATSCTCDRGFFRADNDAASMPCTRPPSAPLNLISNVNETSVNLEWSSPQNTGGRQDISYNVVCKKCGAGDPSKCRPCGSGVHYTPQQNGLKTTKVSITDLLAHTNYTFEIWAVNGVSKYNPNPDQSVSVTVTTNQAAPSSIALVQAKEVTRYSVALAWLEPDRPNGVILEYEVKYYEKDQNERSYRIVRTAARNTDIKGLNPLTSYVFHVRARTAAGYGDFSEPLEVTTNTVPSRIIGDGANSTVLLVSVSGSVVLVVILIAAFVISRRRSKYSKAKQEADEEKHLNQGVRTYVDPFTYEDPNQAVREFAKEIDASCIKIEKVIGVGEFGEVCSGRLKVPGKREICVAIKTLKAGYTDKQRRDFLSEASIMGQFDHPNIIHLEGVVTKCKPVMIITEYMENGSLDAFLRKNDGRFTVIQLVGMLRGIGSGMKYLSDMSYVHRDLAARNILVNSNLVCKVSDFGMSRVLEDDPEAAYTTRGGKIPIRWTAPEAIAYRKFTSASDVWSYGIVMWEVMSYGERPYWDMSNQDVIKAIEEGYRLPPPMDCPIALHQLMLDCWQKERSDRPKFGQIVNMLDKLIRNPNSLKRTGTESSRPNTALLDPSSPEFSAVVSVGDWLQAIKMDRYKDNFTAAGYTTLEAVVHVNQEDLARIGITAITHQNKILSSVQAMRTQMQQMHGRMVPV", "experimental": "as §1"}, "TGFBR1(h)": {"biological_target": "T10, TGFBR1(h) (Homo sapiens, UniProt P36897)", "T10 construct": "purchased Millipore (KinaseProfiler service)", "experimental": "as §1"}, "MKK7β(h)": {"biological_target": "T11, MKK7β(h) (Homo sapiens, UniProt O14733)", "T11 construct": "purchased Millipore (KinaseProfiler service)", "experimental": "as §1"}, "Ab1(Q252H)(h)": {"biological_target": "Ab1(Q252H)(h) (Homo sapiens, UniProt P00519, Q252H)", "experimental": "as §1"}, "MAPK1(h)": {"biological_target": "MAPK1(h) (Homo sapiens, UniProt P27361)", "experimental": "as §1"}, "CDK2/cyclinA(h)": {"biological_target": "CDK2/cyclinA(h) (Homo sapiens, UniProt P24941)", "experimental": "as §1"}, "Ron(h)": {"biological_target": "T12, Ron(h) (Homo sapiens, UniProt Q04912)", "T12 construct": "purchased Millipore (KinaseProfiler service)", "T12 sequence (Q04912 25-1400)": "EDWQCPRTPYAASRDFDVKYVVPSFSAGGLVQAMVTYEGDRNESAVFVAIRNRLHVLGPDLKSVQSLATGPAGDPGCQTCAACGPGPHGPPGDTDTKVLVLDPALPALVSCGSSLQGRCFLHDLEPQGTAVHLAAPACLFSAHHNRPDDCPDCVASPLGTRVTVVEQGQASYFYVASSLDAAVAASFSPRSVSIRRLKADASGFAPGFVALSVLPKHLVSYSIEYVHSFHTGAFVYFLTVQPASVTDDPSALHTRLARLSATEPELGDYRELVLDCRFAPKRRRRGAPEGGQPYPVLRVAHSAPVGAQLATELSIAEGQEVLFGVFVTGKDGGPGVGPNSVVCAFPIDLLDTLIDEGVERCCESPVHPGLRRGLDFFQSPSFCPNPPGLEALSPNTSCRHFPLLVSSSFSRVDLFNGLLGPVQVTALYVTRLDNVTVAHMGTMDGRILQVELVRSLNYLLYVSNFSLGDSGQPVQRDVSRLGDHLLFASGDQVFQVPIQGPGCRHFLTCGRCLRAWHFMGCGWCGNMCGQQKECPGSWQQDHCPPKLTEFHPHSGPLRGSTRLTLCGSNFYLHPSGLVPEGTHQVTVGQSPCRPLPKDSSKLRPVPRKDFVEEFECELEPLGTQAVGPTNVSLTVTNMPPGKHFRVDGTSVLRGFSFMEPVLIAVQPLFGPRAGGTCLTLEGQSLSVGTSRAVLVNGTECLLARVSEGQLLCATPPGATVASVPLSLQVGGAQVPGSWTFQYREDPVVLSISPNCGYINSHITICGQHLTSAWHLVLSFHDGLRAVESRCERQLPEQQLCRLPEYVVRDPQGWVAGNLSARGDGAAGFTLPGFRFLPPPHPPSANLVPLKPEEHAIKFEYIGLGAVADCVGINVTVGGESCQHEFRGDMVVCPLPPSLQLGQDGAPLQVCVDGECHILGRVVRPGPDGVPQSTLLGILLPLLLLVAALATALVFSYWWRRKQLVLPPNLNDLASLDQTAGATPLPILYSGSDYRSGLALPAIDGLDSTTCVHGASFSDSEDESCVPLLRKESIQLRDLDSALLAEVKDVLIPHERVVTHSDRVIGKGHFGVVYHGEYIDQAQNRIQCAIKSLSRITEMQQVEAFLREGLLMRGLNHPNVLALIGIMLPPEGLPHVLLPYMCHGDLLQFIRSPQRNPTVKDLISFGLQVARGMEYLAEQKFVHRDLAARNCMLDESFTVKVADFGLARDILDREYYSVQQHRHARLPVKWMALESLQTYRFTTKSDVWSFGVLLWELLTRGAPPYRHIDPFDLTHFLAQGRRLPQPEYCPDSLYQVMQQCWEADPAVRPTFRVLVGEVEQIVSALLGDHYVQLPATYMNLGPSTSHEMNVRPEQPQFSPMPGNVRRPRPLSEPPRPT", "experimental": "as §1"}, "Met(Y1248H)(h)": {"biological_target": "T13, Met(Y1248H)(h) (Homo sapiens, UniProt P08581, Y1230H)", "T13 construct": "purchased Millipore (KinaseProfiler service)", "experimental": "as §1"}, "NLK(h)": {"biological_target": "NLK(h) (Homo sapiens, UniProt Q9UBE8)", "sequence (Q9UBE8 whole entry)": "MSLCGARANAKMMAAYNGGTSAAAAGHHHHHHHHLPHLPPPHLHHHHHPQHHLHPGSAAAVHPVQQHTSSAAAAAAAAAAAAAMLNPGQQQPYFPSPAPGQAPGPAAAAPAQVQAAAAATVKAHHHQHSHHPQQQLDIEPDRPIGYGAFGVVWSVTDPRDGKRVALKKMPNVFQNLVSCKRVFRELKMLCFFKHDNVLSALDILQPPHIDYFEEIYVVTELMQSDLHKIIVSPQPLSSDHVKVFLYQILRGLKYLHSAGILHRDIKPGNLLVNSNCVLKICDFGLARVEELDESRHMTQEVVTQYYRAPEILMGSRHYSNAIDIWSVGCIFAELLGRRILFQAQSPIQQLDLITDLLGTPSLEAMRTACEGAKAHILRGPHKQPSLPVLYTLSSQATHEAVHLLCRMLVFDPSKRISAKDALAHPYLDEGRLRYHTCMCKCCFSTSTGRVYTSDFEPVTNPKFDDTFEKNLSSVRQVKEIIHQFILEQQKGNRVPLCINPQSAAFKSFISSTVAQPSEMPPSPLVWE", "experimental": "as §1"}, "PKG1α(h)": {"biological_target": "PKG1α(h) (Homo sapiens, UniProt Q13976)", "experimental": "as §1"}}}
{"smiles": "Cc1cc2c(F)c(Oc3nc(Nc4cc(C5CC5)[nH]n4)cc(N4CCN(C)CC4)n3)cc(F)c2[nH]1", "note": "[NTW-3475]", "values": [{"measurement": "Activity %", "setting": "CaMKIδ(h)", "result": 87, "unit": "%"}, {"measurement": "Activity %", "setting": "GRK6(h)", "result": 69, "unit": "%"}, {"measurement": "Activity %", "setting": "Ab1(m)", "result": "−2", "unit": "%"}, {"measurement": "Activity %", "setting": "EphB1(h)", "result": "−1", "unit": "%"}, {"measurement": "Activity %", "setting": "ULK2(h)", "result": 46, "unit": "%"}, {"measurement": "Activity %", "setting": "cKit(V560G)(h)", "result": 3, "unit": "%"}, {"measurement": "Activity %", "setting": "PKBα(h)", "result": 109, "unit": "%"}, {"measurement": "Activity %", "setting": "Arg(h)", "result": "−3", "unit": "%"}, {"measurement": "Activity %", "setting": "EphA5(h)", "result": 122, "unit": "%"}, {"measurement": "Activity %", "setting": "EGFR(T790M)(h)", "result": 61, "unit": "%"}, {"measurement": "Activity %", "setting": "CLK3(h)", "result": 87, "unit": "%"}, {"measurement": "Activity %", "setting": "NEK7(h)", "result": 98, "unit": "%"}, {"measurement": "Activity %", "setting": "IGF-1R(h)", "result": 5, "unit": "%"}, {"measurement": "Activity %", "setting": "CHK1(h)", "result": 113, "unit": "%"}, {"measurement": "Activity %", "setting": "F1t4(h)", "result": 0, "unit": "%"}, {"measurement": "Activity %", "setting": "1tk(h)", "result": 29, "unit": "%"}, {"measurement": "Activity %", "setting": "DAPK2(h)", "result": 106, "unit": "%"}, {"measurement": "Activity %", "setting": "VRK2(h)", "result": 99, "unit": "%"}, {"measurement": "Activity %", "setting": "IRR(h)", "result": 6, "unit": "%"}, {"measurement": "Activity %", "setting": "SRPK2(h)", "result": 99, "unit": "%"}, {"measurement": "Activity %", "setting": "CK1γ1(h)", "result": 96, "unit": "%"}, {"measurement": "Activity %", "setting": "Ab1(M351T)(h)", "result": "−2", "unit": "%"}, {"measurement": "Activity %", "setting": "EGFR(L858R)(h)", "result": 72, "unit": "%"}, {"measurement": "Activity %", "setting": "CaMKI(h)", "result": 90, "unit": "%"}, {"measurement": "Activity %", "setting": "TLK2(h)", "result": 5, "unit": "%"}, {"measurement": "Activity %", "setting": "JNK3(h)", "result": 111, "unit": "%"}, {"measurement": "Activity %", "setting": "SAPK2a(T106M)(h)", "result": 95, "unit": "%"}, {"measurement": "Activity %", "setting": "cKit(D816H)(h)", "result": 9, "unit": "%"}, {"measurement": "Activity %", "setting": "Ros(h)", "result": 46, "unit": "%"}, {"measurement": "Activity %", "setting": "EphA4(h)", "result": 23, "unit": "%"}, {"measurement": "Activity %", "setting": "TGFBR1(h)", "result": 44, "unit": "%"}, {"measurement": "Activity %", "setting": "MKK7β(h)", "result": 97, "unit": "%"}, {"measurement": "Activity %", "setting": "Ab1(Q252H)(h)", "result": "−2", "unit": "%"}, {"measurement": "Activity %", "setting": "MAPK1(h)", "result": 128, "unit": "%"}, {"measurement": "Activity %", "setting": "CDK2/cyclinA(h)", "result": 97, "unit": "%"}, {"measurement": "Activity %", "setting": "Ron(h)", "result": 34, "unit": "%"}, {"measurement": "Activity %", "setting": "Met(Y1248H)(h)", "result": 16, "unit": "%"}, {"measurement": "Activity %", "setting": "NLK(h)", "result": 96, "unit": "%"}, {"measurement": "Activity %", "setting": "PKG1α(h)", "result": 100, "unit": "%"}]}
